Laboratory results as given in US10239849B2 (Merck Sharp & Dohme Corp., priority 2015, dated 2019).

Legend:
[1] = biological target: T1, glutathione-S-transferase (GST) tagged LXRalpha LBD (ligand binding domain) (Homo sapiens, UniProt Q13133); assay: LanthaScreen TR-FRET Liver X Receptor Coactivator Assay, LXR alpha-LBD; format: biochemical; settings: for Emax: read-out: LXR alpha activity at max dose (%) (Emax); for EC50 / LXR alpha IP (nM): potency (Inflection Point) of co-activator recruitment, TR-FRET; for EC50: read-out: LXR alpha IP
T1 construct: purchased Invitrogen pv4655
T1 sequence (Q13133 209-447 limits assumed): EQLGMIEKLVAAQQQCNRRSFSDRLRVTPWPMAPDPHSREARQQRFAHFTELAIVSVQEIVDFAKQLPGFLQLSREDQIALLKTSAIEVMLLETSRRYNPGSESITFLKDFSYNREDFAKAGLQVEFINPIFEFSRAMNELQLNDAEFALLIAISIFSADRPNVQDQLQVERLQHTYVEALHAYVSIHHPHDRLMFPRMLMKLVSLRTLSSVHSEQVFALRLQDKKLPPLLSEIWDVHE
Outline: (§1)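 Compound + LBD (alpha or beta); add fluorescein coactivator peptide/Tb anti-GST Ab mix; incubate RT; read TR-FRET.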

[2] = biological target: T2, glutathione-S-transferase (GST) tagged LXRbeta LBD (ligand binding domain) (Homo sapiens, UniProt P55055); assay: LanthaScreen TR-FRET Liver X Receptor Coactivator Assay, LXR beta-LBD; format: biochemical; settings: for Emax: read-out: LXR beta activity at max dose (%) (Emax); for EC50: potency (Inflection Point) of co-activator recruitment, TR-FRET, read-out: LXR beta IP
T2 construct: purchased Invitrogen pv4658.pps
T2 sequence (P55055 222-460 limits assumed): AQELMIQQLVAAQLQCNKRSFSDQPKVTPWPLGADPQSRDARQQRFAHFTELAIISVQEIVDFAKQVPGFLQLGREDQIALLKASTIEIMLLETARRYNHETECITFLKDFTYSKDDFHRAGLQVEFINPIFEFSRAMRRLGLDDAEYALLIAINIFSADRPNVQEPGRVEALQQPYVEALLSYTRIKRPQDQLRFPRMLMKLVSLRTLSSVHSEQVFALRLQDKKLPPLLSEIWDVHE
Outline: as §1

[3] = efficacy in relation to reference dual agonist T1317

Emax [1, 3] | EC50 [1] | Emax [2, 3] | EC50 [2] | LXR alpha IP (nM) [1] | LXR alpha activity at max dose (%) (Emax) [1, 3] | LXR beta activity at max dose (%) (Emax) [2, 3] | Compound
 | 0.76 µM |  | 34 nM |  | 28% | 79% | CC(C)C(O)(C(=O)N1CCN(c2ncc(-c3cc(Cl)c(C(=O)N(C)C)c(Cl)c3)cc2C#N)CC1)C(F)(F)F (single isomer, unassigned) [Example 7-6, 2,6-dichloro-4-(5-cyano-6-{4-[2-hydroxy-3-methyl-2-(trifluoromethyl)butanoyl]piperazin-1-yl}pyridin-3-yl)-N,N-dimethylbenzamide]
49% | 2.36 µM | 59% | 62 nM |  |  |  | C#Cc1cc(-c2ccc(C(=O)N(C)C)c(Cl)c2)cnc1N1CCN(C(=O)OC(C)(C)C)CC1 [Example 9-5]
68% | 12.7 µM | 78% | 57 nM |  |  |  | CC1CN(c2ncc(-c3ccc(C(=O)N(C)C)c(Cl)c3)cc2C#N)CCN1C(=O)OC(C)(C)C (centres unmarked) [Example 8-6, tert-butyl 4-{5-[3-chloro-4-(dimethylcarbamoyl)phenyl]-3-cyanopyridin-2-yl}-2-methylpiperazine-1-carboxylate]
46% | 19.3 µM | 74% | 282 nM |  |  |  | CN(CCn1cccn1)C(=O)c1ccc(-c2cnc(N3CCN(C(=O)OC(C)(C)C)CC3)c(C#N)c2)cc1Cl [Example 5-23, tert-butyl 4-[5-(3-chloro-4-{methyl[2-(1H-pyrazol-1-yl)ethyl]carbamoyl}phenyl)-3-cyanopyridin-2-yl]piperazine-1-carboxylate]
39% | 21.2 µM | 71% | 1520 nM |  |  |  | CC(C)(C)OC(=O)N1CCN(c2ncc(-c3ccc(C(=O)N4CCC4)c(Cl)c3)cc2C#N)CC1 [Example 5-4, tert-butyl 4-{5-[4-(azetidin-1-ylcarbonyl)-3-chlorophenyl]-3-cyanopyridin-2-yl}piperazine-1-carboxylate]
34% | 11.3 µM | 98% | 329 nM |  |  |  | CNC(=O)c1ccc(-c2cnc(N3CCN(C(=O)C(C)(C)C)CC3)c(C#N)c2)cc1Cl [Example 6-2, 2-chloro-4-{5-cyano-6-[4-(2,2-dimethylpropanoyl)piperazin-1-yl]pyridin-3-yl}-N-methylbenzamide]
34% | 30.1 µM | 57% | 730 nM |  |  |  | CN(C)C(=O)c1ccc(-c2cnc(N3CCN(C(=O)OC(C)(C)C)CC3)c(CO)c2)cc1Cl [Example 9-3, tert-butyl 4-{5-[3-chloro-4-(dimethylcarbamoyl)phenyl]-3-(hydroxymethyl)pyridin-2-yl}piperazine-1-carboxylate]
66% | 2.03 µM | 94% | 94 nM |  |  |  | CC(C)(C)OC(=O)N1CCN(c2ncc(-c3ccc(C(N)=O)c(Cl)c3)cc2C#N)CC1 [Example 5-2, tert-butyl 4-[5-(4-carbamoyl-3-chlorophenyl)-3-cyanopyridin-2-yl]piperazine-1-carboxylate]

Further lines, the compound ahead of its results:

Compound | Emax [1, 3] | EC50 [1] | Emax [2, 3] | EC50 [2] | LXR alpha IP (nM) [1] | LXR alpha activity at max dose (%) (Emax) [1, 3] | LXR beta activity at max dose (%) (Emax) [2, 3]
CN(C)C(=O)c1ccc(-c2cnc(N3CCN(S(=O)(=O)c4cccs4)CC3)c(C#N)c2)cc1Cl [Example 1-6, 2-chloro-4-{5-cyano-6-[4-(thiophen-2-ylsulfonyl)piperazin-1-yl]pyridin-3-yl}-N,N-dimethylbenzamide] | 23% | 6.84 µM | 77% | 31 nM |  |  | 
Cc1cc(CC(=O)N2CCN(c3ncc(-c4ccc(C(=O)N(C)C)c(Cl)c4)cc3C#N)CC2)on1 [Example 2-8, 2-chloro-4-(5-cyano-6-{4-[(3-methylisoxazol-5-yl)acetyl]piperazin-1-yl}pyridin-3-yl)-N,N-dimethylbenzamide] | 5% |  | 46% | 4170 nM | No IP |  | 
CN(C)C(=O)c1ccc(-c2cnc(N3CCN(C(=O)C4CCCCO4)CC3)c(C#N)c2)cc1Cl (centres unmarked) [Example 2-6, 2-chloro-4-{5-cyano-6-[4-(tetrahydro-2H-pyran-2-ylcarbonyl)piperazin-1-yl]pyridin-3-yl}-N,N-dimethylbenzamide] | 16% |  | 49% | 1560 nM | No IP |  | 
CN(C)C(=O)c1ccc(-c2cnc(N3CCN(C(=O)C45CC(C4)C5)CC3)c(C#N)c2)cc1Cl [Example 2-4, 4-{6-[4-(bicyclo[1.1.1]pent-1-ylcarbonyl)piperazin-1-yl]-5-cyanopyridin-3-yl}-2-chloro-N,N-dimethylbenzamide] | 44% | 12.8 µM | 79% | 95 nM |  |  | 
CN(C)C(=O)c1ccc(-c2ccc(N3CC4CCC(C3)N4C(=O)OC(C)(C)C)c(Cl)c2)cc1Cl [Example 8-10, tert-butyl 3-[3,3′-dichloro-4′-(dimethylcarbamoyl)biphenyl-4-yl]-3,8-diazabicyclo[3.2.1]octane-8-carboxylate] | 64% | 0.66 µM | 63% | 70 nM |  |  | 
CCC(C)(C)C(=O)N1CCN(c2ncc(-c3ccc(C(=O)N(C)C)c(Cl)c3)cc2C#N)CC1 [Example 2-5, 2-chloro-4-{5-cyano-6-[4-(2,2-dimethylbutanoyl)piperazin-1-yl]pyridin-3-yl}-N,N-dimethylbenzamide] | 62% | 11.1 µM | 97% | 109 nM |  |  | 
CN(C)C(=O)c1ccc(-c2ccc(N3CCN(C(=O)OC(C)(C)C)CC3)cc2)cc1Cl [Example 4-11, tert-butyl 4-[3′-chloro-4′-(dimethylcarbamoyl)biphenyl-4-yl]piperazine-1-carboxylate] | 55% | 5.47 µM | 82% | 238 nM |  |  | 
CN(C)C(=O)c1ccc(-c2cnc(N3CCN(C(=O)C4(c5ccccc5)CC4)CC3)c(C#N)c2)cc1Cl [Example 2-17, 2-chloro-4-(5-cyano-6-{4-[(1-phenylcyclopropyl)carbonyl]piperazin-1-yl}pyridin-3-yl)-N,N-dimethylbenzamide] | 27% | 4.36 µM | 95% | 27 nM |  |  | 
CC(C)C(O)(C(=O)N1CCN(c2ccc(-c3ccc(C(=O)N(C)C)c(Cl)c3)cc2)CC1)C(F)(F)F (centres unmarked) [Example 4-18, 3-chloro-4′-{4-[2-hydroxy-3-methyl-2-(trifluoromethyl)butanoyl]piperazin-1-yl}-N,N-dimethylbiphenyl-4-carboxamide] | 20% | 1.29 µM | 65% | 259 nM |  |  | 
CN(C)C(=O)c1ccc(-c2ccc(N3CCN(C(=O)[C@](O)(c4ccccc4)C(F)(F)F)CC3)cc2)cc1Cl [Example 2-27, 3-chloro-N,N-dimethyl-4′-{4-[(2R)-3,3,3-trifluoro-2-hydroxy-2-phenylpropanoyl]piperazin-1-yl}biphenyl-4-carboxamide] | 14% |  | 80% | 226 nM | No IP |  | 
CN(C)C(=O)c1ccc(-c2cnc(N3CCN(C(=O)C(O)(c4ccccc4)C(F)(F)F)CC3)c(C#N)c2)cc1Cl (centres unmarked) [Example 2-32, 2-chloro-4-{5-cyano-6-[4-(3,3,3-trifluoro-2-hydroxy-2-phenylpropanoyl)piperazin-1-yl]pyridin-3-yl}-N,N-dimethylbenzamide] | 37% | 3.05 µM | 98% | 4 nM |  |  | 
CN(C)C(=O)c1ccc(-c2cnc(N3CCN(C(=O)OCc4ccccc4Cl)CC3)c(C#N)c2)cc1Cl [Example 3-9, 2-chlorobenzyl 4-{5-[3-chloro-4-(dimethylcarbamoyl)phenyl]-3-cyanopyridin-2-yl}piperazine-1-carboxylate] | 39% | 8.9 µM | 84% | 155 nM |  |  | 
CN(C)C(=O)c1ccc(-c2ccc(N3CCN(S(=O)(=O)c4c(Cl)cccc4C(F)(F)F)CC3)c(Cl)c2)cc1Cl [Example 4-9, 3,3′-dichloro-4′-(4-{[2-chloro-6-(trifluoromethyl)phenyl]sulfonyl}piperazin-1-yl)-N,N-dimethylbiphenyl-4-carboxamide] | 51% | 4.13 µM | 96% | 597 nM |  |  | 
CN(C)C(=O)c1ccc(-c2cnc(N3CCN(S(=O)(=O)Cc4ccccc4F)CC3)c(C#N)c2)cc1Cl [Example 1-10, 2-chloro-4-(5-cyano-6-{4-[(2-fluorobenzyl)sulfonyl]piperazin-1-yl}pyridin-3-yl)-N,N-dimethylbenzamide] | 18% | 0.733 µM | 65% | 162 nM |  |  | 
CN(C)C(=O)c1ccc(-c2cnc(N3CCN(S(=O)(=O)c4c(F)cccc4F)CC3)c(C#N)c2)cc1Cl [Example 1-17, 2-chloro-4-(5-cyano-6-{4-[(2,6-difluorophenyl)sulfonyl]piperazin-1-yl}pyridin-3-yl)-N,N-dimethylbenzamide] | 36% | 4.84 µM | 98% | 43 nM |  |  | 
